According to PMC11940214, “The Antimicrobial Peptide D-CONGA-Q7 Eradicates Drug-Resistant E. coli by Disrupting Bacterial Cell Membranes” (Biology, 2025):
In brackets after ≈: the same amount, converted by molar mass. Where a SMILES comes first, the peptide text is derived from it. [ ]: non-standard residue; d: D form.

Assays:
[1] = system: E. coli strain LN175, K88, J27ab-2; experiment: Thermal and acid-base stability, read out as change in MIC; assay type: physicochemical, Escherichia coli; settings: 1.024 mg/mL solution, then adjusted back
Procedure: For thermal stability, the D-CONGA-Q7 was prepared as a 1.024 mg/mL solution and heated in a water bath at room temperature, 60, 65, 70, 75, 80, 90 and 100 °C for 1 h, and autoclaved at 121 °C for 15 min and then cooled to room temperature, respectively. Acid–base stability, 1.024 mg/mL of D-CONGA-Q7 solution was used to adjust its pH to 2–12 using HCl and NaOH, and the pH of each tube was adjusted back to the initial tube pH after 1 h. The adjustment of solution pH = 3.89 (pH = 3.89 is the pH of D-CONGA-Q7 itself when dissolved) included the above use of the untreated samples as a control.
The antimicrobial activity of D-CONGA-Q7 was evaluated by assessing changes in its MIC against strain LN175, K88, J27ab-2.

[2] = system: E. coli LN175 (mcr-1,NDM); assay type: cell-based, Escherichia coli
Procedure: (§1) The bacterial strains used in this study, including LN175, J27ab-2, K88, AD21R, and 21f54mr-1, were E. coli obtained from the Hunan Veterinary Engineering Research Center (Changsha, Hunan Province). Except for K88, all the strains were multidrug-resistant and carried multiple resistance genes, while K88 was a diarrhea-causing strain containing the ETEC gene.
(§2) The bacterial concentration was adjusted to 1 × 10^5 CFU/mL using a turbidimeter. Then, 100 μL of Mueller–Hinton Broth (MHB) broth was added to wells 1–11 of a 96-well plate, while 200 μL was added to well 12. Then, 100 μL of the drug was added to wells 1–11, which was followed by 100 μL of the bacterial suspension. Results were observed after incubation at 37 °C for 16–24 h.

in vitro = assay type: cell-based, porcine; settings: pig
Procedure: Porcine small intestinal epithelial cells (IPEC-J2) were cultured in DMEM-F12 medium supplemented with 10% fetal bovine serum (TransGen Biotech, Beijing, China) and 1% penicillin–streptomycin (Beyotime Biotechnology, Shanghai, China). The cells were maintained in a humidified incubator at 37 °C with 5% CO2. Cells were passaged using 0.25% trypsin solution containing ethylenediaminetetraacetic acid (EDTA). Cells were seeded into 96-well plates at a density of 1 × 10⁴ cells per well. After 48 h, they were treated with varying concentrations of D-CONGA-Q7 and incubated with CCK-8 (Beyotime Biotechnology, Shanghai, China) for 1 h. The assay was measured using a […].

[3] = system: multidrug-resistant E. coli strains; assay type: cell-based, Escherichia coli
Procedure: as §1, §2

erythrocyte = settings: cited from earlier work
Text: D-CONGA was originally screened from a library of 28,000 peptides using high-throughput synthesis principles and host cell compatibility. […] This study explored the antimicrobial mechanis ...

CC(C)C[C@@H](NC(=O)[C@@H](CCC(N)=O)NC(=O)[C@@H](CCCNC(=N)N)NC(=O)[C@@H](CCCNC(=N)N)NC(=O)[C@@H](C)NC(=O)[C@@H](Cc1c[nH]c2ccccc12)NC(=O)[C@@H](CCCNC(=N)N)NC(=O)[C@H](N)CCCNC(=N)N)C(=O)N[C@H](C)C(=O)N[C@H](Cc1ccccc1)C(=O)N[C@H](C)C(=O)N[C@H](Cc1ccccc1)C(=O)N[C@H](CCCNC(=N)N)C(=O)N[C@H](CCCNC(=N)N)C(N)=O [D-CONGA-Q7] (H-[dR][dR][dW][dA][dR][dR][dQ][dL][dA][dF][dA][dF][dR][dR]-NH2)
antimicrobial activity after exposure to pH 12 (acid-base stability) ([1]; pH 12, 1 h, read-out MIC): reduction in activity | antimicrobial activity after exposure to pH 2 to 11 (acid-base stability) ([1]; pH between 2 and 11 with HCl/NaOH, 1 h, read-out MIC against LN175, K88, J27ab-2): retained its antimicrobial activity | MIC [2]: 4 µg/mL (≈ 2.12 µM) | IC50 (in vitro): 188 µg/mL (≈ 99.8 µM) | MIC values for all strains tested [3]: less than or equal to 4 μg/mL | erythrocyte hemolytic activity (erythrocyte): minimal erythrocyte hemolytic activity
